The source of these data is article PMC9783227, “New Derivatives of the Multi-Stage Active Malaria Box Compound MMV030666 and Their Antiplasmodial Potencies” (Pharmaceuticals, 2022).

Series [1] relates to L-6 cells. More on the design: method as in PMID 34832891. Conditions: comparison compounds 1-4 of the first series; read-out: Cytotoxicity L-6 Cells IC50; cited from earlier work.
Series [2] can be described thus: Parallel artificial membrane permeability assay (PAMPA). Conditions: PAMPA, PBS pH 7.4, 200 µM, 5 h, room temperature; for Papp at 5 h, 200 µM: pH 7.4, Pe. How it is done: The parallel artificial membrane permeability assay (PAMPA) is a fast and easy high-throughput assay to determine passive permeability of compounds through semi-permeable membranes (for example the blood-brain-barrier) without the influence of efflux pumps or transporter molecules.
With the high-throughput PAMPA the newly synthesized compounds were tested for their passive permeability through cell membranes without the influence of efflux pumps or transporter proteins. The assay was performed using a Corning® Gentest^TM Pre-coated PAMPA Plate System with 96-well polystyrene plates. The bottom of the acceptor plate consists of a porous membrane, whereby the pores are lined with a lipid-oil-lipid triple layer. Stock solutions of each test compound at 10 mM were prepared in DMSO or methanol and diluted with phosphate-buffered saline (PBS at a pH of 7.4) to a final concentration of 200 µM. […] The donor plate (bottom plate) was filled with the compound solutions, whereby all compounds were tested in quadruplicates. Each well of the acceptor plate (top plate) was filled with PBS buffer. Donor and acceptor plates were combined and incubated at room temperature for 5 h. After that, the plates were separated and 150 µL of each well of both plates were transferred to 96-well UV plates (Greiner Bio-One). Absorption at different wavelengths covering a range from 200 to 300 nm was measured using a SpectraMax M3 UV plate reader. […] The plates were analyzed at the wavelength where the R^2 value of the calibration curve was higher than 0.99 [41]. […] (2) cequ=[cD(t)∗VD+cA(t)∗VA]/(VD+VA) where: • VD—donor well volume (0.3 mL); • VA—acceptor well volume (0.2 mL); • cA(t)—acceptor well compound concentration at time t; • cD(t)—donor well compound concentration at time t.
Recovery of compounds from donor and acceptor wells (mass retention) was calculated as shown in the equation below. Data were only accepted when recovery exceeded 70%. (3) R=1−[cD(t)∗VD+cA(t)∗VA]/(c0∗VD) where: • R—mass retention (%); • VD—donor well volume (0.3 mL); • VA—acceptor well volume (0.2 mL); • cA(t)—acceptor well compound concentration at time t; • cD(t)—donor well compound concentration at time t; • c0—initial donor well compound concentration (200 µM).

Series [3] deals with P. falciparum NF54. On the set-up: method as in PMID 34832891. Conditions: comparison compounds 1-4 of the first series, cited from earlier work; for IC50: read-out: PfNF54 IC50.
Series [4] is described as follows: Solubility in DMSO and methanol (PAMPA stock solutions). Type of series: physicochemical. Background: In PAMPA a lipid-coated filter parts donor from acceptor wells.
Description: Permeability is defined using hydrochlorothiazide (Pe = 0.09 × 10^−6 cm/s) and caffeine (Pe = 8.00 × 10^−6 cm/s) as standards.
With the high-throughput PAMPA the newly synthesized compounds were tested for their passive permeability through cell membranes without the influence of efflux pumps or transporter proteins. The assay was performed using a Corning® Gentest^TM Pre-coated PAMPA Plate System with 96-well polystyrene plates. The bottom of the acceptor plate consists of a porous membrane, whereby the pores are lined with a lipid-oil-lipid triple layer. Stock solutions of each test compound at 10 mM were prepared in DMSO or methanol and diluted with phosphate-buffered saline (PBS at a pH of 7.4) to a final concentration of 200 µM. Hydrochlorothiazide (Pe = 0.9 nm/s) and caffeine (Pe = 80 nm/s) were used as standards. The donor plate (bottom plate) was filled with the compound solutions, whereby all compounds were tested in quadruplicates. Each well of the acceptor plate (top plate) was filled with PBS buffer. Donor and acceptor plates were combined and incubated at room temperature for 5 h. After that, the plates were separated and 150 µL of each well of both plates were transferred to 96-well UV plates (Greiner Bio-One). Absorption at different wavelengths covering a range from 200 to 300 nm was measured using a SpectraMax M3 UV plate reader. By measuring serial dilutions of five dilution steps covering a range from 200 to 12.5 µM, a calibration curve was prepared. The plates were analyzed at the wavelength where the R^2 value of the calibration curve was higher than 0.99 [41]. […] (2) cequ=[cD(t)∗VD+cA(t)∗VA]/(VD+VA) where: • VD—donor well volume (0.3 mL); • VA—acceptor well volume (0.2 mL); • cA(t)—acceptor well compound concentration at time t; • cD(t)—donor well compound concentration at time t.
The next series in a line: in vitro. Conditions: rat. The protocol:
(§1) All newly prepared compounds were tested for their in vitro activity against the chloroquine sensitive strain NF54 of P. falciparum. Cytotoxicity was determined using L-6 cells (rat skeletal myofibroblasts). Chloroquine and podophyllotoxin were used as standards.
(§2) The cytotoxicity assays were performed using 96-well microtiter plates, each well containing 4000 L-6 cells (a primary cell line derived from rat skeletal myofibroblasts, ATCC CRL-1458^TM) in 0.1 mL of RPMI 1640 medium supplemented with 1% glutamine (200 mM) and 10% fetal bovine serum. Serial drug dilutions of eleven 3-fold dilution steps covering a range from 100 to 0.002 µg/mL were prepared. After 70 h of incubation, the plates were inspected under an inverted microscope to assure growth of the controls and sterile conditions. Then, 0.01 mL resazurin solution (resazurin, 12.5 mg in 100 mL double-distilled water) was added to each well and the plates were incubated for another 2 h. The plates were read with a Spectramax Gemini XS microplate fluorometer (Molecular Devices Cooperation, Sunnyvale, CA, USA) using an excitation wavelength of 536 nm and an emission wavelength of 588 nm. IC50 values were calculated by linear regression from the sigmoidal dose inhibition curves using SoftmaxPro software (Molecular Devices Cooperation, Sunnyvale, CA, USA). Podophyllotoxin (Sigma P4405) was used as control.

Series [5] deals with P. falciparum NF54. As to the kind of experiment: In vitro microplate assay against P. falciparum NF54 (3H-hypoxanthine incorporation). Type of series: cell-based, Plasmodium falciparum. The conditions noted are these: for IC50: average of four determinations, read-out: PfNF54 IC50; for S.I. = IC50 (Cyt.)/IC50 (PfNF54): L-6 cells IC50 / PfNF54 IC50. How it is done:
as §1
The in vitro activity of compounds against erythrocytic stages of the drug sensitive NF54 strain of P. falciparum […] was determined using a ^3H-hypoxanthine incorporation assay. Compounds were dissolved in DMSO at 10 mg/mL and further diluted in medium before adding to parasite cultures that were incubated in RPMI 1640 medium without hypoxanthine, supplemented with HEPES (5.94 g/L), NaHCO3 (2.1 g/L), neomycin (100 U/mL), AlbumaxR (5 g/L) and washed human red blood cells A+ at 2.5% haematocrit (0.3% parasitaemia). Serial drug dilutions of eleven 3-fold dilutions steps covering a range from 100 to 0.002 µg/mL were prepared. The 96-well plates were incubated in a humidified atmosphere at 37 °C; 4% CO2, 3% O2, 93% N2. After 48 h of incubation time, 0.05 mL of ^3H-hypoxanthine (=0.5 µCi) was added to each well of the plate. The plates were incubated for further 24 h under the same conditions. Plates were then harvested using a Betaplate^TM cell harvester (Wallac, Zurich, Switzerland). Red blood cells were transferred onto a glass fiber filter and then washed with distilled water. The dried filters were inserted into a plastic foil with 10 mL of scintillation fluid and counted in a Betaplate^TM liquid scintillation counter (Wallac, Zurich, Switzerland). IC50 values were calculated from sigmoidal inhibition curves by linear regression using Microsoft Excel. Chloroquine (Sigma C6628) was used as control.

In series [6] the test system is L-6 cells. As to the kind of experiment: in vitro. The protocol:
as §1, §2

Setting [7] is: reason why permeability could not be detected.
Setting [8] is: Plasmodium falciparum, NF54, chloroquine sensitive strain NF54, erythrocytic stages.

Like-named read-outs stand apart in the source and are kept apart here.

In general, IC50 refers to the concentration that inhibits the measured activity by half. As for `CC(C)(C)OC(=O)N1CCN(c2ccccc2NC(=O)c2cccc(C(F)(F)F)c2Oc2ccc(F)cc2)CC1` [Compound 1, reference compound], in the series with L-6 cells [1], the IC50 was 131 µM. Further, the Pe in series [2] was 2.37 10^−6 cm/s. For the same molecule, in the series with P. falciparum NF54 [3], the “S.I. = IC50 (Cyt.)/IC50 (PfNF54)” value is on record as 316.9 and the IC50 is 0.413 µM.

In the case of `CC(C)(C)OC(=O)N1CCN(c2ccc(NC(=O)c3cccc(C(F)(F)F)c3Oc3ccc(F)cc3)cc2)CC1` [Compound 2], the IC50 in the series with L-6 cells [1] is 124 µM; in the series on P. falciparum NF54 [3], 0.269 µM. Further, in the series on P. falciparum NF54 [3], the “S.I. = IC50 (Cyt.)/IC50 (PfNF54)” value is on record as 461.0.

Consider `CC(C)(C)C(=O)N1CCN(c2ccccc2NC(=O)c2cccc(C(F)(F)F)c2Oc2ccc(F)cc2)CC1` [Compound 3], for which the IC50 in the series with L-6 cells [1] was 185 µM. In addition, in the series on P. falciparum NF54 [3], the “S.I. = IC50 (Cyt.)/IC50 (PfNF54)” value was 299.7 and the half-inhibitory concentration (IC50) was 0.617 µM.

As to `CC(C)(C)C(=O)N1CCN(c2ccc(NC(=O)c3cccc(C(F)(F)F)c3Oc3ccc(F)cc3)cc2)CC1` [Compound 4], the half-maximal inhibitory concentration (IC50) in the series with L-6 cells [1] is 99.6 µM; with P. falciparum NF54 [3], 0.58 µM. In addition, the “S.I. = IC50 (Cyt.)/IC50 (PfNF54)” value in the series with P. falciparum NF54 [3] is recorded as 171.9.

For `CC(C)(C)OC(=O)N1CCN(c2ccccc2NC(=O)c2ccccc2Oc2ccc(F)cc2)CC1` [Compound 26, tert-Butyl 4-{2-[2-(4-fluorophenoxy)benzamido]phenyl}piperazine-1-carboxylate], the “solubility in DMSO and methanol” value in series [4] (setting [7]) is on record as “insufficient solubility”. Moreover, the midpoint of inhibition in “in vitro”, the IC50 at 72 h, lay at 154 µM. For the same molecule, the half-inhibitory concentration (IC50) in the series on P. falciparum NF54 [5] (setting [8]) came out at 0.627 µM.

As to `CC(C)(C)C(=O)N1CCN(c2ccccc2NC(=O)c2ccccc2Oc2ccc(F)cc2)CC1` [Compound 33, N-{2-[4-(2,2-Dimethylpropanoyl)piperazin-1-yl]phenyl}-2-(4-fluorophenoxy)benzamid], the “solubility in DMSO and methanol” value in series [4] (setting [7]) is “insufficient solubility”. In addition, the 50% inhibitory concentration (IC50) at 72 h in “in vitro” turned out to be 38.3 µM. Besides, the IC50 with P. falciparum NF54 [5] (setting [8]) is 2.15 µM.

On to `CC(C)(C)C(=O)N1CCN(c2ccc(NC(=O)c3cccc([N+](=O)[O-])c3Oc3ccc(F)cc3)cc2)CC1` [Compound 44, N-{4-[4-(2,2-Dimethylpropanoyl)piperazin-1-yl]phenyl}-2-(4-fluorophenoxy)-3-nitrobenzamid], for which the “solubility in DMSO and methanol” value in series [4] (setting [7]) is “insufficient solubility”. Moreover, the IC50 at 72 h in “in vitro” was found to be 144 µM. Moreover, in the series on P. falciparum NF54 [5] (setting [8]), the concentration for half-maximal inhibition (IC50) is 1.5 µM.

As a reminder, the Papp is a coefficient for how fast a substance crosses the barrier. A higher Papp goes with fast passage. `CC(C)(C)C(=O)N1CCN(c2ccc(NC(=O)c3cccc(F)c3Oc3ccc(F)cc3)cc2)CC1` [Compound 45, N-{4-[4-(2,2-Dimethylpropanoyl)piperazin-1-yl]phenyl}-3-fluoro-2-(4-fluorophenoxy)benzamid] registered a Papp at 5 h, 200 µM in series [2] of 5.13 ×10⁻⁶ cm/s. Half-maximal inhibition in the series “in vitro” (IC50 at 72 h) required 109 µM. Also, the IC50 with P. falciparum NF54 [5] (setting [8]) was found to be 1.79 µM.

Consider `CC(C)(C)OC(=O)N1CCN(c2ccccc2NC(=O)c2cccc(N)c2Oc2ccc(F)cc2)CC1` [Compound 46, tert-Butyl 4-{2-[3-amino-2-(4-fluorophenoxy)benzamido]phenyl}piperazine-1-carboxylate], for which the apparent permeability coefficient (Papp) at 5 h, 200 µM in series [2] is 1.44 ×10⁻⁶ cm/s. This molecule also returned an IC50 at 72 h in “in vitro” of 127 µM. Moreover, the “S.I. = IC50 (Cyt.)/IC50 (PfNF54)” value with P. falciparum NF54 [5] is 126.0. For the same molecule, in the series on P. falciparum NF54 [5] (setting [8]), the IC50 turned out to be 1.01 µM.

In series [2], `CC(C)(C)OC(=O)N1CCN(c2ccc(NC(=O)c3cccc(N)c3Oc3ccc(F)cc3)cc2)CC1` [Compound 47, tert-Butyl 4-{4-[3-amino-2-(4-fluorophenoxy)benzamido]phenyl}piperazine-1-carboxylate] yielded a Papp at 5 h, 200 µM of 0.62 ×10⁻⁶ cm/s. In the series “in vitro”, this molecule gave a concentration for half-maximal inhibition (IC50) at 72 h of 158 µM. Further, the half-inhibitory concentration (IC50) in the series on P. falciparum NF54 [5] (setting [8]) came out at 3.08 µM.

As for “tert-Butyl 4-{4-[3-fluoro-2-(4-fluorophenoxy)benzamido]phenyl}piperazin-1-carboxylate [Compound 27]”, the “solubility in DMSO and methanol” value in series [4] is given as “insufficient solubility”. In addition, the half-inhibitory concentration (IC50) is 154 µM with L-6 cells [6] and 0.65 µM in the series on P. falciparum NF54 [5] (chloroquine sensitive strain NF54, erythrocytic stages). In the series with P. falciparum NF54 [5], the “S.I. = IC50 (Cyt.)/IC50 (PfNF54)” value is on record as 237.5.
